Experimental data reported in US7629150B2, “Transformed cell harboring DNA or RNA encoding sugar chain synthesizing agent having β1,3-N-acetylglucosaminyltransferase activity” (Kyowa Hakko Kirin Co., Ltd., priority 2000, dated 2009).
One block for each molecule: values may come before it.

Key:
[1] = test system: pCXN2-G6-transfected HCT-15 cell; assay: Sugar chain synthesis inhibitors: FACS analysis with OSK28 of poly-N-acetyllactosamine sugar chains; format: cell-based, human; conditions: cultured for 5 days
Protocol: The HCT-15 cells transfected with pCXN2-G6 or pCXN2 prepared in the above (2) (each 5×10^6 cells) were washed by using 3 ml of a phosphate buffer PBS (8 g/l NaCl, 0.2 g/l KCl, 1.15 g/l Na2HPO4 (anhydrous) and 0.2 g/l KH2PO4).
The cells (about 1×10^6 cells) described above were put into a microtube (1.5 ml, manufactured by Eppendorf) and the cells were collected by centrifugation (550×g, 7 minutes).
The cells were washed with 0.9 ml of 0.1% sodium azide-containing PBS (A-PBS: 8 g/l NaCl, 0.2 g/l KCl, 1.15 g/l Na2HPO4 (anhydrous), 0.2 g/l KH2PO4 and 0.1% sodium azide), and then the washed cells were suspended in 100 μl of an antibody (OSK28) capable of recognizing a poly-N-acetyllactosamine sugar chain diluted with A-PBS to give a concentration of 10 μg/ml (20 times dilution of the following purified antibody) and allowed to react at 4° C. for 30 minutes in the dark.
After the reaction, the cells are washed twice with 3 ml of A-PBS, suspended in 100 μl of an FITC-labeled anti-human IgM antibody [manufactured by Medical & Biological Laboratories (MBL)] diluted to 10 μg/ml, and then allowed to react at 4° C. for 1 hour. After the reaction, the cells were washed twice with 3 ml of A-PBS, suspended in 200 μl of PBS containing 0.5% p-formaldehyde and then immobilized. The cells were analyzed by using FACS (Epics Elite Flow Cytometer). […]

G6sec2 [2] = molecular target: T1, G6sec2 (Homo sapiens, UniProt Q9BYG0); assay: β1,3-N-acetylglucosaminyltransferase activity using unlabeled oligosaccharides as substrates (HPAE/PAD); format: biochemical
T1 construct: made in house; host or cells: Sf21 insect cells infected with pVL1393-F2G6sec2-derived recombinant baculovirus
T1 sequence (Q9BYG0 39-378): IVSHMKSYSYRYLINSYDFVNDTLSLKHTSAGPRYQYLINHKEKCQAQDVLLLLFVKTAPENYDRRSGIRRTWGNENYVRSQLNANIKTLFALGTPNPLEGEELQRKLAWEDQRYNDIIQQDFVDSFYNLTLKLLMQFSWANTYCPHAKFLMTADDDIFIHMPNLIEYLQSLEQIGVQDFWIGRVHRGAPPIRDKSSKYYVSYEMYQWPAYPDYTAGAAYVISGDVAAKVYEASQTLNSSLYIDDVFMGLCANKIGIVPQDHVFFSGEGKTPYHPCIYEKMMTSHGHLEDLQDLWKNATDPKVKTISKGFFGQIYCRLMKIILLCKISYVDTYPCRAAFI
Protocol: The glycosyltransferase reaction was carried out as follows. The reaction was carried out at 37° C. for 16 hours in 40 μl of an assay solution [50 mmol/l MOPS (pH 7.5), 5 mmol/l UDP-GlcNAc (manufactured by SIGMA), 5 mmol/l MnCl2, 10 mmol/l sugar chain substrate, a purified enzyme solution (G6sec2)]. Next, the mixture was treated at 100° C. for 5 minutes and then centrifuged at 10,000×g for 20 minutes to obtain a supernatant, and a part thereof was analyzed using HPAE/PAD ([…]; manufactured by DIONEX). The method was specifically carried out according to a conventional method [Anal. Biochem., 189, 151-162 (1990), J. Biol. Chem., 273, 433-440 (1998)].
As a purified enzyme (G6sec2), […] of the enzyme obtained in the above (2) was used. As substrates, unlabeled oligosaccharides [lactose (Galβ1-4Glc) and LNnT] were used.
After the reaction on each substrate using an assay solution containing UDP-GlcNAc (saccharide donor) and an assay solution containing no donor, analysis was carried out using HPAE/PAD and peaks appeared only in the assay solution containing UDP-GlcNAc were defined as products. The product was identified using coincidence of its elution time with that of standard sugar chain as the index. As standard sugar chains, GlcNAcβ1-3Galβ1,4Glc and GlcNAcβ1-3Galβ1,4GlcNAcβ1-3Galβ1-4Glc were used.

G6sec1 = molecular target: T2, G6sec1 (Homo sapiens, UniProt Q9BYG0); assay: GlcNAc β1,3-galactosyltransferase activity measurement; format: biochemical; conditions: 2-aminobenzamide-labeled substrate 88 μmol/l; UDP-Gal; 37° C., 16 hours
T2 construct: made in house; host or cells: Sf21 insect cells infected with pVL1393-F2G6sec1-derived recombinant baculovirus
T2 sequence (Q9BYG0 36-378): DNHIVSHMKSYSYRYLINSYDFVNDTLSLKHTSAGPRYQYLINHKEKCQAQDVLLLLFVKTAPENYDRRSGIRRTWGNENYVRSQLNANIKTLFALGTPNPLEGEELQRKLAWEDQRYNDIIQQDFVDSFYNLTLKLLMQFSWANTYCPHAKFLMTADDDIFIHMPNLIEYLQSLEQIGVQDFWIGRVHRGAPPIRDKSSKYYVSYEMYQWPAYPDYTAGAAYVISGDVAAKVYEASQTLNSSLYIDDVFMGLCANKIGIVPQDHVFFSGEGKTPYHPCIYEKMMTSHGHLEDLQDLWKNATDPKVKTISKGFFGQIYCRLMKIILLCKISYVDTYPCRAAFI
Protocol: (§1) The β1,3-galactosyltransferase activity measurement was carried out according to a conventional method [J. Biol. Chem., 274, 12499-12507 (1999)]. The reaction was carried out at 37° C. for 16 hours in 20 μl of an assay solution [14 mmol/l HEPES (pH 7.4), 75 μmol/l UDP-Gal (manufactured by SIGMA), 11 mmol/l MnCl2, 88 μmol/l sugar chain substrate, the above purified enzyme]. The amount of the enzyme used was the same as the amount used in the measurement of β1,3-N-acetylglucosaminyltransferase. As a substrate, 2-aminobenzamide-labeled GlcNAcβ1-3Galβ1-4GlcNAcβ1-3Galβ1-4GlcNAc (hereinafter referred to as “GlcNAc-2LN”) was used. The sugar chain was prepared by treating 2-aminobenzamide-labeled LN3 with β-galactosidase and thereby removing the terminal galactose residue. Specifically, 100 milli-units of β-galactosidase (manufactured by Seikagaku Corporation) were added to about 60 nmol of 2-aminobenzamide-labeled LN3, the reaction was carried out at 37° C. for 16 hours, and the sugar chain was prepared by inactivating β-galactosidase through its heat treatment at 100° C. for 5 minutes.

G6sec2 [3] = molecular target: T1, G6sec2; assay: as above; format: biochemical; conditions: 2-aminobenzamide-labeled substrate 88 μmol/l; UDP-Gal; 37° C., 16 hours
Protocol: as §1

G6sec2 [4] = molecular target: T1, G6sec2; assay: β1,3-N-acetylglucosaminyltransferase activity using glycolipids as substrates (purified enzyme); format: biochemical; conditions: for conversion efficiency: purified G6sec2 10 μl, 37° C., 16 hours
Protocol: Using glycolipids as the substrate, β1,3-N-acetylglucosaminyltransferase activity of the G6 polypeptide was measured according to known methods [FEBS, 462, 289 (1999), J. Biol. Chem., 269, 14730-14737 (1994), J. Biol. Chem., 267, 23507 (1992), J. Biol. Chem., 267, 2994 (1992)]. Specifically, the reaction was carried out at 37° C. for 16 hours in 20 μl of a reaction solution [150 mmol/l sodium cacodylate (pH 7.2), 10 mmol/l UDP-GlcNAc (manufactured by SIGMA), 480 μmol/l UDP—[^14C]GlcNAc (manufactured by Amersham), 0.4% Triton CF-54, 10 mmol/l MnCl2, […] glycolipid, purified enzyme (G6sec2)]. As the purified enzyme (G6sec2), 10 μl of the enzyme obtained in the above (2) was used. As glycolipids, lactosylceramide, paragloboside, galactosylceramide (Type I) and galactosylceramide (Type II) were used. Paragloboside was obtained from Yasunori Kushi at Tokyo Medical and Dental University. Other glycolipids were purchased from SIGMA. After completion of the reaction, 200 μl of 0.1 mol/l KCl was added and lightly centrifuged to obtain the supernatant. The supernatant was passed through Sep-Pak plus C18 Cartridge (manufactured by Waters) which had been washed once with 10 ml of methanol and equilibrated by washing twice with 10 ml of 0.1 mol/l KCl to adsorb the glycolipid in the supernatant onto the cartridge. After washing the cartridge twice with 10 ml of pure water for HPLC, the adsorbed glycolipid was eluted with 5 ml of methanol. After concentrating the eluate to about 10 μl using a vacuum dryer, the concentrated solution was plotted on a TLC plate (HPTLC plate Silica gel 60: manufactured by MERCK) and developed using a developing solvent comprising a composition of chloroform:methanol:water (containing 0.2% CaCl2)=65:35:8. After the development was carried out to a position 5 mm from the upper end of the TLC plate, the plate was dried and then the radioactivity incorporated into the glycolipid was measured using Bio Image Analyzer BAS 2000 (manufactured by Fuji Photo Film).

G6 polypeptide = molecular target: T3, G6 polypeptide (Homo sapiens, UniProt Q9BYG0); assay: β1,3-N-acetylglucosaminyltransferase activity of cell extract of Namalwa cells transfected with pAMo-G6, glycolipid substrates; format: biochemical; conditions: for conversion efficiency into the product: 250 μmol/l glycolipid, 37° C., 16 hours
T3 construct: In order to obtain a DNA encoding the full-length G6 polypeptide, PCR was carried out; expressed in transfected cells; Triton X-100 cell extract
T3 sequence (Q9BYG0 1-378): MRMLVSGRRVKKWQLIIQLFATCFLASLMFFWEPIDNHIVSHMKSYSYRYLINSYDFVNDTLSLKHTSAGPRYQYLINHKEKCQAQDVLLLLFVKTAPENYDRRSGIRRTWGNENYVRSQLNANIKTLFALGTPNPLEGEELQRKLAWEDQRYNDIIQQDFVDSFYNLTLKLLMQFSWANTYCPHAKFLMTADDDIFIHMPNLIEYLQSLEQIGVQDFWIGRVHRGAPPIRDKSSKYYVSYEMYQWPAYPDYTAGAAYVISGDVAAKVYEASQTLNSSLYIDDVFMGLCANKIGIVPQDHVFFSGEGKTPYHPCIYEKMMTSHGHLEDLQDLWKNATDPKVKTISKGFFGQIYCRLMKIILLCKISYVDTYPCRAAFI
Protocol: β1,3-N-Acetylglucosaminyltransferase activity of G6 polypeptide was measured by using glycolipids as substrates according to known methods [FEBS, 462, 289 (1999), J. Biol. Chem., 269, 14730-14737 (1994), J. Biol. Chem., 267, 23507 (1992), J. Biol. Chem., 267, 2994 (1992)]. Specifically, the reaction was carried out at 37° C. for 16 hours in 20 μl of reaction solution [150 mmol/l sodium cacodylate (pH 7.2), 10 mmol/l UDP-GlcNAc (manufactured by SIGMA), 480 μmol/l UDP—[^14C]GlcNAc (manufactured by Amersham), 0.4% Triton CF-54, 10 mmol/l MnCl2, 250 μmol/l glycolipid, the cell extract prepared in the above (1) (20 μg as protein)]. As glycolipids, lactosylceramide (manufactured by SIGMA) and paragloboside (obtained from Yasunori Kushi at Tokyo Medical and Dental University) were used. After completion of the reaction, 200 μl of 0.1 mol/l KCl was added and lightly centrifuged to obtain the supernatant. The supernatant was passed through Sep-Pak plus C18 Cartridge (Waters), which had been washed once with 10 ml of methanol and equilibrated twice with 10 ml of 0.1 mol/l KCl, to adsorb the glycolipid in the supernatant onto the cartridge. After washing the cartridge twice with 10 ml of pure water for HPLC, the adsorbed glycolipid was eluted with 5 ml of methanol. After concentrating the eluate to about 10 μl by using a vacuum dryer, the concentrated solution was spotted on a TLC plate (HPTLC plate Silica gel 60: manufactured by MERCK) and developed using a developing solvent comprising a composition of chloroform:methanol:water (containing 0.2% CaCl2)=65:35:8. After the development was carried out to a position 5 mm from the upper end of the TLC plate, the plate was dried and then the radioactivity incorporated into the glycolipid was measured using Bio Image Analyzer BAS 2000 (manufactured by Fuji Photo Film).

Molecule: CC(=O)N[C@H]1[C@@H](OCc2ccccc2)O[C@H](CO)[C@H](O)[C@@H]1O [benzyl-α-GalNAc]
reactivity to OSK28 antibody in comparison with absence of inhibitor ([1]; 4 mmol/l): sharply reduced

Molecule: O[C@H]1[C@H]2[C@H](O)CCCN2C[C@H]1O [swainsonine]
reactivity to OSK28 antibody ([1]; 10 μg/ml): reduced

Molecule: lactosylceramide
conversion efficiency into the product (G6 polypeptide): 0.125% | conversion efficiency (G6sec2 [4]; glycolipid substrate): 5.39%

The next lines start with the values.

conversion efficiency into the product (G6sec2 [2]; unlabeled oligosaccharide 10 mmol/l, 37° C., 16 hours): 0.30% | relative activity, LNnT as substrate defined as 100% (G6sec2 [2]; unlabeled oligosaccharides): 62.5%
Molecule: OC[C@H]1O[C@@H](O[C@H]2[C@H](O)[C@@H](O)C(O)O[C@@H]2CO)[C@H](O)[C@@H](O)[C@H]1O (stereo partly shown) [lactose]

GlcNAc β1,3-galactosyltransferase activity (G6sec1): did not show | GlcNAc β1,3-galactosyltransferase activity (G6sec2 [3]): did not show
Molecule: GlcNAcβ1-3Galβ1-4GlcNAcβ1-3Galβ1-4GlcNAc [GlcNAc-2LN]

β1,3-N-acetylglucosaminyltransferase activity for the glycolipid (G6sec2 [4]; glycolipid substrate, purified G6sec2): did not show activity
Molecule: galactosylceramide (Type II)

conversion efficiency into the product (G6 polypeptide): 0.126% | activity relative to lactosylceramide as substrate defined as 100% (G6 polypeptide; glycolipid substrates): 96% | conversion efficiency (G6sec2 [4]; glycolipid substrate): 25.2% | activity relative to lactosylceramide as substrate defined as 100% (G6sec2 [4]; glycolipid substrates, purified G6sec2): 468%
Molecule: paragloboside
